System: Meloidogyne sp.
Assay: Determination of the nematocidal activity against Meloidogyne sp. (potted tomato, greenhouse)
Assay type: in vivo
Conditions: for reduction in parasitosis at the root level (in words) / GALL INDEX (scale 0-10) / PLANT DEVELOPMENT (fresh weight g) / INFESTED ROOT %: tomatoes, cv Marmande; for reduction in parasitosis at the root level (in words): 4,000 g/hectare, 30 days, comment on Table 6; for GALL INDEX (scale 0-10) / PLANT DEVELOPMENT (fresh weight g) / INFESTED ROOT %: dose 4,000 g/hectare, survey 30 days after transplantation; for GALL INDEX (scale 0-10): Bridge-Page scale, 0 = 0% of root affected, 10 = 100% infested root, infested blank 7; for PLANT DEVELOPMENT (fresh weight g): infested blank 13; for INFESTED ROOT %: infested blank 70
Description: The tests aimed at testing the nematocidal activity of the product under examination are carried out using inocula taken from a cultivation of Meloidogyne sp. maintained on potted tomato and cucumber plants and grown in a greenhouse.
In order to carry out the experiments, portions of roots having a large number of galls and soil are taken from the infested pots, in which larvae are present starting from the second stage of age.
New pots having a diameter of 15 cm are half-filled with sterile earth. The portions of infested roots, previously cleaned, are placed on it to be able to correctly assess the degree of infestation and ensure that each pot contains the same nematic charge. 200-300 g of infested soil are then added, which are covered with a thin layer of sterile earth.
The treatment is carried out by pouring 100 ml of hydroacetonic solution onto the surface of the soil in which the product to be tested has been dissolved to obtain a concentration ranging from 70 to 100 ppm.
Tomato or cucumber seedlings at the stage of two or three actual leaves are transplanted in the pots thus prepared, after one or seven days from the application. Different cultivars of tomatoes (Microtom, Marmande) or cucumbers (Lungo della Cina) are used, having a different sensitivity to the parasite and different times of growth. In particular, for estimating the final production, a variety of ornamental tomatoes (cv Microtom) is used, whose seedlings are small in size and able to reach the maturity of the fruit in about two months in pots and under greenhouse conditions.
The containment capacity of the parasite is detected, 30 and 60 days after the transplantation, considering the development of the plant (whose fresh weight is detected) and the presence of galls on the roots.
This is estimated using both the infestation scale proposed by Bridge-Page (Tropical Pest Management 26 (3): 296-298, September 1980), according to which the value zero corresponds to 0% of root affected and the value 10 corresponds to 100% of infested root, and also considering the percentage of root mass affected.
Table 6 indicates the results relating to the effectiveness of Compounds Nr.

Compound | reduction in parasitosis at the root level (in words) | GALL INDEX (scale 0-10) | PLANT DEVELOPMENT (fresh weight g) [g] | INFESTED ROOT % [%] | nematocidal activity of caffeine as verified by the Applicant (in words) (attack of the parasite and formation of galls on the root system, conditions not given)
Cn1c(=O)c2c(ncn2CC(=O)OCCC(F)=C(F)F)n(C)c1=O [Comp. Nr. 21, 3,4,4-trifluorobut-3-en-1-yl (1,3-dimethyl-2,6-dioxo-1,2,3,6-tetrahydro-7H-purin-7-yl) acetate] | decisive reduction in parasitosis at the root level | 2 | 20 | 20 | –
Cn1c(=O)c2c(ncn2CCS(=O)(=O)CCC(F)=C(F)F)n(C)c1=O [Comp. Nr. 11, 1,3-dimethyl-7-[2-(3,4,4-trifluorobut-3-ene-1-sulfonyl)ethyl]-3,7-dihydro-1H-purin-2,6-dione] | decisive reduction in parasitosis at the root level | 4.5 | 16 | 45 | –
Cn1c(=O)c2c(ncn2C)n(C)c1=O [Caffeine, caffeine, reference compound] | – | – | 12 | 70 | unsatisfactory from the point of view of nematocidal activity
Cn1c(=O)c2c(ncn2CC[S+]([O-])CCC(F)=C(F)F)n(C)c1=O (centres unmarked) [Comp. Nr. 8, 1,3-dimethyl-7-[2-(3,4,4-trifluorobut-3-ene-1-sulfinyl)ethyl]-3,7-dihydro-1H-purin-2,6-dione] | – | 5 | 17 | 50 | –

Reference: patent publication US20220104495A1, “THEOPHYLLINE DERIVATIVES WITH NEMATOCIDAL ACTIVITY, THEIR AGRONOMIC COMPOSITIONS AND RELATIVE USE” (ISAGRO S.p.A., priority 2019, published 2022)
